Assay results reported in the NIST ThermoML archive (doi:10.1021/je900596d).

Conditions: for mass density: 283.24 K, Fluid (supercritical or subcritical phases), Vibrating tube method; for vapor or sublimation pressure: Liquid, Closed cell (Static) method

FC(F)=C(F)C(F)(F)F [hexafluoropropene]
Conditions	mass density [kg/m3]	vapor or sublimation pressure [kPa]
114 kPa	7.35	–
116.4 kPa	7.51	–
118.8 kPa	7.66	–
121.1 kPa	7.8	–
123.6 kPa	8.03	–
126.1 kPa	8.11	–
128.5 kPa	8.33	–
131 kPa	8.54	–
133.4 kPa	8.66	–
135.9 kPa	8.94	–
140.7 kPa	9.1	–
143.2 kPa	9.36	–
145.7 kPa	9.54	–
148.1 kPa	9.69	–
150.6 kPa	9.83	–
153 kPa	9.99	–
155.6 kPa	10.24	–
158.1 kPa	10.37	–
160.5 kPa	10.54	–
163 kPa	10.74	–
165.1 kPa	10.87	–
167.6 kPa	11.05	–
170 kPa	11.2	–
172.5 kPa	11.37	–
176.6 kPa	11.7	–
179.2 kPa	11.83	–
181.6 kPa	12.01	–
184.2 kPa	12.12	–
186.6 kPa	12.42	–
190.9 kPa	12.6	–
193.4 kPa	12.77	–
195.9 kPa	13.03	–
198.4 kPa	13.21	–
203.3 kPa	13.55	–
205.8 kPa	13.69	–
208.3 kPa	13.93	–
210.8 kPa	14.08	–
213.3 kPa	14.3	–
215.8 kPa	14.4	–
218.3 kPa	14.66	–
220.8 kPa	14.83	–
223.3 kPa	14.99	–
225.7 kPa	15.16	–
228.2 kPa	15.32	–
230.7 kPa	15.58	–
233.2 kPa	15.69	–
235.7 kPa	15.79	–
238.2 kPa	16.04	–
240.7 kPa	16.28	–
243.2 kPa	16.38	–
245.6 kPa	16.6	–
248.1 kPa	16.83	–
250.7 kPa	17.01	–
253.2 kPa	17.15	–
255.6 kPa	17.39	–
258.1 kPa	17.58	–
260.5 kPa	17.67	–
263 kPa	17.89	–
265.5 kPa	18.02	–
268 kPa	18.31	–
270.4 kPa	18.49	–
272.9 kPa	18.6	–
275.4 kPa	18.8	–
277.9 kPa	19.01	–
280.5 kPa	19.23	–
283.1 kPa	19.39	–
286.3 kPa	19.61	–
288.21 K	–	537.1
288.7 kPa	19.79	–
291.2 kPa	19.98	–
293.19 K	–	625.9
293.7 kPa	20.2	–
296.1 kPa	20.4	–
298.22 K	–	728.3
298.6 kPa	20.56	–
305.2 kPa	21.07	–
308.4 kPa	21.36	–
311.6 kPa	21.56	–
314.8 kPa	21.85	–
318.2 kPa	22.13	–
321.5 kPa	22.28	–
324.6 kPa	22.54	–
327.9 kPa	22.87	–
331.2 kPa	23.12	–
334.4 kPa	23.37	–
340.9 kPa	23.85	–
344.2 kPa	24.11	–
347.4 kPa	24.4	–
350.6 kPa	24.64	–
353.9 kPa	24.84	–
357.1 kPa	25.07	–
360.3 kPa	25.34	–
363.5 kPa	25.56	–
366.7 kPa	25.93	–
370 kPa	26.15	–
373.1 kPa	26.37	–
376.4 kPa	26.74	–
379.5 kPa	26.94	–
382.8 kPa	27.24	–
385.9 kPa	27.44	–
389.2 kPa	27.66	–
392.3 kPa	27.96	–
395.5 kPa	28.23	–
398.7 kPa	28.48	–
401.8 kPa	28.77	–
405 kPa	28.98	–
408.2 kPa	29.26	–
411.4 kPa	29.53	–
414.6 kPa	29.77	–
417.7 kPa	30.05	–
420.9 kPa	30.37	–
424 kPa	30.54	–
427.2 kPa	30.81	–
430.3 kPa	31.07	–
433.5 kPa	31.39	–
436.6 kPa	31.7	–
439.7 kPa	31.9	–
442.9 kPa	32.26	–
446 kPa	32.45	–
449 kPa	32.73	–
452.1 kPa	32.99	–
454.4 kPa	33.16	–
456.7 kPa	33.3	–
460.5 kPa	33.77	–
462.7 kPa	33.86	–
463.5 kPa	34.04	–
464.2 kPa	34.05	–
465 kPa	34.18	–
465.7 kPa	34.33	–
466.4 kPa	34.49	–
467.1 kPa	34.74	–
467.7 kPa	35.03	–
468.3 kPa	35.5	–
468.9 kPa	35.71	–
